Biological target: c-MET (Homo sapiens, UniProt P08581)
Assay: Ki determination for the inhibition of c-MET (standard radiometric 33P-ATP kinase assay, polyE4Y substrate)
Type: biochemical
Conditions: 1.0 nM c-Met, 35 μM ATP, 0.5 mg/mL polyE4Y, 20 min; competitive tight-binding fit
Outline: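 Ki obtained by fitting data to competitive tight-binding inhibition kinetics. c-Met at 1.0 nM phosphorylated polyE4Y (0.5 mg/mL) with 35 μM 33P-ATP for 20 min in pH 7.5 HEPES buffer with MgCl2, NaCl, BSA and DTT. Incorporated label measured by scintillation after TCA precipitation on filters.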

Chain of c-MET (P08581 25-1390): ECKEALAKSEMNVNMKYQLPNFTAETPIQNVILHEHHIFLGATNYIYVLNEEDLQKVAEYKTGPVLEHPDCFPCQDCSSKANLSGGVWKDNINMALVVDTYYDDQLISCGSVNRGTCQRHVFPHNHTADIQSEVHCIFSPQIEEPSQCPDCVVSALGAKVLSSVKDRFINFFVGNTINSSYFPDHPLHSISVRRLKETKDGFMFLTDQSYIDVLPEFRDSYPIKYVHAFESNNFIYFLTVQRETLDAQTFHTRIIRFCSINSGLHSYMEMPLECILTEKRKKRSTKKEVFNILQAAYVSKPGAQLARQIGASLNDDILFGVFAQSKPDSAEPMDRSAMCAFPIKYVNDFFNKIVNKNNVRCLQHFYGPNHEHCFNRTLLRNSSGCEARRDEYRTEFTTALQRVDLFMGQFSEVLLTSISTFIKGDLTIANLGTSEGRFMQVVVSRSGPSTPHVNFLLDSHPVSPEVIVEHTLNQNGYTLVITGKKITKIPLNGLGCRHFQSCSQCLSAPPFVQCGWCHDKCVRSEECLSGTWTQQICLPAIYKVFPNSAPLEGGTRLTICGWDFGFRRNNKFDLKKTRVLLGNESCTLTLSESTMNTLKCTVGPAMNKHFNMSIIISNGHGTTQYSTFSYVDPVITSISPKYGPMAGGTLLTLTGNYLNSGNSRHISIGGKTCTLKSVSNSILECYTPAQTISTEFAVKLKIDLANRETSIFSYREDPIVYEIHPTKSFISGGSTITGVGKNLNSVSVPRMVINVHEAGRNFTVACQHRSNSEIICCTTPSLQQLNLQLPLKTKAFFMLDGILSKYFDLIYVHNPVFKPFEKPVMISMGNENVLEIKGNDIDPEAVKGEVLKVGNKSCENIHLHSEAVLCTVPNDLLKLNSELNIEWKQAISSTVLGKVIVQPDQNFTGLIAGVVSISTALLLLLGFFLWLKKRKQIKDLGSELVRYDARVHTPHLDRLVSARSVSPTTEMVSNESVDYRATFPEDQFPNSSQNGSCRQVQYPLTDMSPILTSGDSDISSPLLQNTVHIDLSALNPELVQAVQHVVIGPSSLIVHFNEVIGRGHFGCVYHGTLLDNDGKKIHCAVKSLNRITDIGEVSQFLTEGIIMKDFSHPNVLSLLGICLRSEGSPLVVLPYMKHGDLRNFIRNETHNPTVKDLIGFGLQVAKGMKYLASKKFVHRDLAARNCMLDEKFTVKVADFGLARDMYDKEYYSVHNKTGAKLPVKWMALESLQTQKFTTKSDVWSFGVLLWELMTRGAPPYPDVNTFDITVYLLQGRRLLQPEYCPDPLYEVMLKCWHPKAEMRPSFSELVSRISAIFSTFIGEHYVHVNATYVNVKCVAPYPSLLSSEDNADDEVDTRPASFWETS

Structure (SMILES)	Ki
COc1c(F)cccc1-n1nnnc1-c1cc(-c2ccc(CN3CCCC3)cc2)cnc1N [I-A-604]	100 to 1000 nM
Nc1ncc(-c2ccc(N3CCCC3)nc2)nc1-c1nncn1-c1cccc(F)c1F [I-A-4]	100 to 1000 nM
Cc1c(F)cccc1-n1nnnc1-c1cc(-c2ccc(CN(C)C)cc2)cnc1N [I-A-577]	100 to 1000 nM
Cc1nnc(-c2cc(-c3cnn(C4CCNCC4)c3)cnc2N)n1-c1cccc(F)c1Cl [I-A-390]	100 to 1000 nM
CC(=O)c1ccc(-c2cnc(N)c(-c3nnnn3-c3cccc(Cl)c3Cl)c2)cc1 [I-A-88]	100 to 1000 nM
COCCOC(=O)Nc1cccc(-c2cnc(N)c(-c3nnnn3-c3cccc(F)c3F)c2)c1 [I-A-271]	100 to 1000 nM
Nc1ncc(-c2ccc3nccnc3c2)cc1-c1nnnn1-c1cccc(F)c1F [I-A-304]	100 to 1000 nM
Nc1ncc(-c2nc3c(s2)CNCC3)cc1-c1nnnn1-c1cccc(Cl)c1Cl [I-A-467]	100 to 1000 nM
COc1ccc(OC)c(-c2cnc(N)c(-c3nnnn3-c3cccc(F)c3F)c2)c1 [I-A-306]	100 to 1000 nM
CN1CCN(c2ccc(-c3cnc(N)c(-c4nn(C)cc4-c4cccc(Cl)c4Cl)c3)cc2)CC1 [I-B-21]	100 to 1000 nM
Nc1ncc(C2=CCN(CC3CCOC3)CC2)cc1-c1nnnn1-c1cccc(F)c1F (centres unmarked) [I-A-643]	100 to 1000 nM
Nc1ncc(-c2cnn(C3CCNCC3)c2)cc1-c1nnnn1-c1cc(F)cc(F)c1Cl [I-A-634]	100 to 1000 nM
Nc1ncc(-c2ccccc2Cl)cc1-c1nnnn1-c1cccc(F)c1F [I-A-224]	100 to 1000 nM
CN(Cc1ccc(-c2cnc(N)c(-c3nnnn3-c3cccc(Cl)c3Cl)c2)cc1)Cc1cccnc1 [I-A-107]	100 to 1000 nM
CC1CN(Cc2ccc(-c3cnc(N)c(-c4nnnn4-c4cccc(Cl)c4Cl)c3)cc2)CC(C)O1 (centres unmarked) [I-A-103]	100 to 1000 nM
Nc1ncc(-c2ccncc2)cc1-c1nnnn1-c1cccc(F)c1F [I-A-490]	100 to 1000 nM
CC(C)(C)C(=O)Nc1ccc(-c2cnc(N)c(-c3nnnn3-c3cccc(F)c3F)c2)cc1 [I-A-194]	100 to 1000 nM
N#Cc1cccc(-c2cnc(N)c(-c3nncn3-c3cccc(F)c3F)n2)c1 [I-A-30]	100 to 1000 nM
Nc1ncc(-c2cnn([C@H]3CCCNC3)c2)nc1-c1nnnn1-c1cccc(Cl)c1F [I-A-658]	≤ 100 nM
Nc1ncc(-c2cccc(C(=O)N3CCOCC3)c2)cc1-c1nnnn1-c1cccc(F)c1F [I-A-320]	100 to 1000 nM
Nc1ncc(-c2ccc(CN3CCC[C@H]3CO)cc2)cc1-c1nnnn1-c1cccc(Cl)c1Cl [I-A-122]	≤ 100 nM
Nc1ncc(-c2cccc(NC(=O)Nc3cccs3)c2)cc1-c1nnnn1-c1cccc(F)c1F [I-A-275]	100 to 1000 nM
Nc1ncc(-c2cnn([C@H]3CCNC3)c2)nc1-c1nnnn1-c1cccc(F)c1F [I-A-536]	≤ 100 nM
CC(=O)Nc1cccc(-c2cnc(N)c(-c3nncn3-c3cccc(Cl)c3Cl)c2)c1 [I-A-73]	100 to 1000 nM
COc1c(F)cccc1-n1nnnc1-c1cc(-c2ccc(NC(C)=O)cc2)cnc1N [I-A-588]	100 to 1000 nM
CCCC(=O)Nc1ccc(-c2cnc(N)c(-c3nnnn3-c3cccc(F)c3F)c2)cc1 [I-A-195]	100 to 1000 nM
Nc1ncc(-c2cnn(C3CCCNCC3)c2)cc1-c1nnnn1-c1cccc(Cl)c1Cl (centres unmarked) [I-A-429]	≤ 100 nM
CC(=O)Nc1ccc(-c2cnc(N)c(-c3nnnn3-c3cc(Cl)cc(Cl)c3)c2)cc1 [I-A-587]	100 to 1000 nM
Nc1ncc(-c2cnn([C@@H]3CCNC3)c2)nc1-c1nnnn1-c1cccc(F)c1F [I-A-660]	≤ 100 nM
CN(C)Cc1ccc(-c2cnc(N)c(-c3nnnn3-c3cc(F)ccc3Cl)c2)cc1 [I-A-592]	100 to 1000 nM

Results, then the molecule that gave them:

Ki	Structure (SMILES)
≤ 100 nM	Cc1cccc(-c2cnc(N)c(-c3nnnn3-c3cccc(F)c3F)c2)c1 [I-A-242]
≤ 100 nM	Nc1ncc(-c2ccc(C3CCNCC3)cc2)cc1-c1nnnn1-c1cccc(F)c1F [I-A-400]
≤ 100 nM	Nc1ncc(-c2ccc(NC(=O)N3CCCC3)cc2)cc1-c1nnnn1-c1cccc(F)c1F [I-A-276]
≤ 100 nM	Nc1ncc(-c2cc3c(s2)CCNCC3)cc1-c1nnnn1-c1cccc(Cl)c1F [I-A-481]
≤ 100 nM	Nc1ncc(-c2cnn(C3COCOC3)c2)cc1-c1nnnn1-c1cccc(F)c1F [I-A-432]
≤ 100 nM	Nc1ncc(-c2cnc3[nH]ccc3c2)nc1-c1nncn1-c1cccc(F)c1F [I-A-13]
≤ 100 nM	CN(C)CCn1cc(-c2cnc(N)c(-c3nnnn3-c3cccc(F)c3F)c2)cn1 [I-A-406]
≤ 100 nM	Nc1ncc(-c2cnn([C@H]3CCNC3)c2)cc1-c1nnnn1-c1cccc(Cl)c1Cl [I-A-413]
≤ 100 nM	Nc1ncc(-c2ccoc2)cc1-c1nnnn1-c1cccc(F)c1F [I-A-497]
≤ 100 nM	CCC(CC)C(=O)Nc1ccc(-c2cnc(N)c(-c3nnnn3-c3cccc(F)c3F)c2)cc1 [I-A-197]
≤ 100 nM	Nc1ncc(-c2cnn(CCN3CCCC3)c2)cc1-c1nc2cnccc2n1-c1cccc(F)c1F [I-D-11]
≤ 100 nM	Nc1ncc(-c2ccc(CN3CC[C@H](O)C3)cc2)cc1-c1nnnn1-c1cccc(F)c1F [I-A-131]
≤ 100 nM	Nc1ncc(-c2ccc(CN3CCC[C@@H]3CN3CCCC3)cc2)cc1-c1nnnn1-c1cccc(Cl)c1Cl [I-A-118]
≤ 100 nM	Nc1ncc(-c2cccc(N3CCNCC3)c2)cc1-c1nnnn1-c1cccc(F)c1F [I-A-414]
≤ 100 nM	CC(=O)Nc1ccc(-c2cnc(N)c(-c3nnnn3-c3cccc(F)c3F)c2)c(F)c1 [I-A-126]
≤ 100 nM	Nc1ncc(-c2cnn(C3CCN(CC4CC4)CC3)c2)cc1-c1nnnn1-c1cccc(Cl)c1F [I-A-472]

Ki	Structure (SMILES)
≤ 100 nM	Nc1ncc(-c2ccc(CCN3CCCC3)cc2)cc1-c1nnnn1-c1cccc(F)c1F [I-A-181]
≤ 100 nM	CCNC(=O)Nc1nc2cc(F)c(-c3cnc(N)c(-c4nncn4-c4cccc(F)c4F)n3)cc2[nH]1 [I-A-57]
≤ 100 nM	COc1cccc(-c2cnc(N)c(-c3nnnn3-c3cccc(F)c3F)c2)c1 [I-A-221]
≤ 100 nM	Nc1ncc(-c2cc(F)ccc2O)cc1-c1nnnn1-c1cccc(F)c1F [I-A-292]
≤ 100 nM	CC(=O)Nc1ccc(-c2cnc(N)c(-c3nnnn3-c3cccc(F)c3F)c2)s1 [I-A-263]
≤ 100 nM	Nc1ncc(C2=CCN(C(=O)O[C@H]3CCOC3)CC2)cc1-c1nnnn1-c1cccc(F)c1F [I-A-526]
≤ 100 nM	Nc1ncc(-c2cnn([C@@H]3CCNC3)c2)cc1-c1nnnn1-c1cccc(Cl)c1F [I-A-538]
≤ 100 nM	Nc1ncc(-c2cnn(C3CCNCC3)c2)cc1-c1nnnn1-c1c(F)cccc1F [I-A-628]
≤ 100 nM	Nc1ncc(-c2ccc(-n3ccnc3)nc2)cc1-c1nnnn1-c1cccc(F)c1F [I-A-128]
≤ 100 nM	CN1C[C@@H]2C[C@H]1CN2c1ccc(-c2cnc(N)c(-c3nncn3-c3cccc(F)c3F)n2)cc1 [I-A-9]
≤ 100 nM	Nc1ncc(C2=CCC(N)CC2)cc1-c1nnnn1-c1cccc(F)c1F (centres unmarked) [I-A-158]
≤ 100 nM	Nc1ncc(-c2cnn(CCN3CCCC3)c2)cc1-c1nnnn1-c1cccc(Cl)c1Cl [I-A-411]
≤ 100 nM	CCCS(=O)(=O)N1CCC(n2cc(-c3cnc(N)c(-c4nnnn4-c4cccc(Cl)c4F)c3)cn2)CC1 [I-A-446]
≤ 100 nM	CC(=O)N1CCC(n2cc(-c3cnc(N)c(-c4nncn4-c4cccc(Cl)c4F)c3)cn2)CC1 [I-A-450]
≤ 100 nM	Nc1ncc(-c2ccc(N3CCCC3=O)cc2)cc1-c1nnnn1-c1cccc(F)c1F [I-A-189]
≤ 100 nM	Nc1ncc(-c2cccs2)cc1-c1nnnn1-c1cccc(F)c1F [I-A-487]

Reference: patent publication US8232406B2, “c-MET protein kinase inhibitors” (Vertex Pharmaceuticals Incorporated, priority 2006, dated 2012)
